Measurements from paper PMC7767381, “Exploring the Anti-Cancer Mechanism of Novel 3,4′-Substituted Diaryl Guanidinium Derivatives” (Pharmaceuticals, 2020).

Legend:
MCF-7 cells = test: alamarBlue cell viability assay, MCF-7; assay type: cell-based; conditions: Homo sapiens, MCF7, 72 h, read-out: MCF-7 IC50 ± SEM
Text: (§1) Cell viability and proliferation assays were used to evaluate the in vitro cytotoxicity of all synthesised compounds in a variety of different cancer cell lines using the alamarBlue® viability assay and the results are presented in Table 1 and Table 2. The sensitivity of cancer cells to drugs can often be compromised by PIK3CA, Ras and BRAF mutations. To determine whether such mutations are critical to the efficacy of our new compounds we tested them in a range of cancerous cell lines expressing different mutations. Firstly, we used the HL-60 (human promyelocytic leukaemia, NRas mutated) cell line for general cytotoxicity screening of all compounds. […] Lastly, toxicity against MCF-10A, which is a non-tumorigenic epithelial cell line, was also assessed for one of the most promising compounds (4). The graphs representing the viability results with the HL-60, MCF-7, HeLa, HCT-116, and HKH-2 cancer cell lines for compound 1 and derivatives 2, 3, and 4 are shown in Figures S7–S10 (ESI).
(§2) Cells were counted and seeded in 96-well plates at a density of 2 × 10^5 cells/mL for HL-60, 2.5 × 10^4 cells/mL for MCF-7, MCF10A and HeLa, 1 × 10^5 cells/mL for HCT116 and HKH-2, all of them in their respective media. The 96-well plates were then treated with a 1:100 dilution of stock concentrations of drugs or EtOH (1% v/v)/DMSO (0.1% v/v) as vehicle control in triplicate. Three blank wells containing 200 µL RPMI with no cells were also set-up as blanks. After a 72 h incubation, 20 µL of alamarBlue was added to each well. The plates were incubated in darkness at 37 °C for 4–5 h using a Molecular Devices microplate reader, the fluorescence (F) was then read at an excitation wavelength of 544 nm and an emission wavelength of 590 nm. Cell viability was then determined by subtracting the mean blank fluorescence (Fb) from the treated sample fluorescence (Fs) and expressing this as a percentage of the fluorescence of the blanked vehicle control (Fc). […] The results were then plotted as a nonlinear regression, sigmoidal dose-response curves on Prism, from which the IC50 value for each drug was determined.
(§3) The MCF-7 (human breast tumour) cell line was obtained from Prof. Mary Meegan, School of Pharmacy, TCD. It was maintained in Roswell Park Memorial Institute (RPMI) 1640 medium with stable glutamate (GlutaMax I) supplemented with 10% (v/v) fetal bovine serum (FBS), 1% (v/v) penicillin/ streptomycin (pen-strep) and 2 mM L-glutamine.
(§4) The HeLa (human epitheloid cervix carcinoma) cell line was obtained from Prof. Thorfinnur Gunnlaugsson, School of Chemistry TCD. It was maintainedin Dulbecco's Modified Eagle's Medium (DMEM) supplemented with 10% (v/v) fetal bovine serum (FBS) and 1%(v/v) penicillin/ streptomycin (pen-strep).
(§5) The HCT116and HKH-2 (human colon cancer cells) cell lines were obtained from Prof. James Murray, School of Biochemistry and Immunology TCD. They were maintainedin Dulbecco's Modified Eagle's Medium (DMEM) supplemented with 10% (v/v) fetal bovine serum (FBS), 1% (v/v) penicillin/ streptomycin (pen-strep), 1% (v/v) sodium pyruvate (NaPyr), 1% (v/v) L-glutamine (L-Glu) and, only for HKH-2, 0.6 mg/mL geneticine (G418).
MCF-10A (human breast epithelial) cell line was obtained from Prof. Mary Meegan, School of Pharmacy, TCD. It was cultured in Dulbecco’s Modified Eagle Medium/Nutrient Mixture F-12 (DMEM/F12; Gibco) supplemented with 5% horse serum (Invitrogen), 20 ng/mL epidermal growth factor (Merck Millipore), 0.5 μg/mL hydrocortisone (Sigma), 100 ng/mL cholera toxin (Sigma), 10 μg/mL insulin (Sigma), and penicillin/streptomycin (1% v/v) (Gibco).
4.4. AlamarBlue ® Cell Viability Assay
Cells were counted and seeded in 96 well plates at a density of 2 × 10^5 cells/mL for HL-60, 2.5× 10^4 cells/mL for MCF-7, MCF10A and HeLa, 1 × 10^5 cells/mL for HCT116 and HKH-2, all of them in their respective media. The 96 well plates were then treated with a 1:100 dilution of stock concentrations of drugs or EtOH (1% v/v)/DMSO (0.1% v/v) as vehicle control in triplicate. […]

HKH-2 cells = test: alamarBlue cell viability assay, HKH-2; assay type: cell-based; conditions: Homo sapiens, 72 h, mutated KRas disrupted, read-out: HKH-2 IC50 ± SEM
Text: as §1, §2, §3, §4, §5
MCF-10A (human breast epithelial) cell line was obtained from Prof. Mary Meegan, School of Pharmacy, TCD. […]
Cells were counted and seeded in 96 well plates at a density of 2 × 10^5 cells/mL for HL-60, 2.5× 10^4 cells/mL for MCF-7, MCF10A and HeLa, 1 × 10^5 cells/mL for HCT116 and HKH-2, all of them in their respective media. […]

SMILES	IC50 (MCF-7 cells)	IC50 (HKH-2 cells)
Cl.Cl.N=C(N)Nc1ccc(Oc2cccc(NC(=N)Nc3ccc(Cl)c(C(F)(F)F)c3)c2)cn1 [Compound 2, 1-(4-Chloro-3-(trifluoromethyl)phenyl)-3-(3-((6-guanidinopyridin-3-yl)oxy)phenyl) guanidine dihydrochloride]	4.91 ± 1.04 µM	8.09 ± 0.78 µM
Cl.N=C(N)Nc1ccc(Oc2cccc(Nc3ccc(Cl)c(C(F)(F)F)c3)c2)cc1 [Compound 3, 1-(4-(3-((4-Chloro-3-(trifluoromethyl)phenyl)amino)phenoxy)phenyl)guanidine hydrochloride]	2.02 ± 0.27 µM	10.3 ± 0.74 µM
Cl.N=C(N)Nc1ccc(Oc2cccc(Nc3ccc(Cl)c(C(F)(F)F)c3)c2)cn1 [Compound 4, 1-(5-(3-((4-Chloro-3-(trifluoromethyl)phenyl)amino)phenoxy)pyridin-2-yl)guanidine hydrochloride]	3.73 ± 0.35 µM	2.88 ± 0.15 µM
